Data reported in patent US20110295006A1, “CYCLIC DIPEPTIDES AS FEED ADDITIVES” (EVONIK DEGUSSA GMBH, priority 2010, published 2011).
Blank lines part the entries; values can stand above or below the compound they belong to.

How the values were obtained:
[1] = test system: Litopenaeus vannamei; settings: feeding tests; Forster and Dominy 2006; cited from earlier work
[2] = Blank without enzyme solution (purely chemical cleavage rate); format: physicochemical; settings: no enzyme solution
Method: DD/LL-cyclo-Met-Met was taken up in TRIS/HCl buffer solution and the enzyme solution was added to it. As comparison and for assessing the purely chemical cleavage rate, in each case a blank was prepared without enzyme solution (see Table 1). A sample was taken from time to time and its composition was detected and quantified using a calibrated HPLC. The conversion was determined as the quotient of the content of methionine or methionylmethionine (Met-Met) and the content of DD/LL-cyclo-Met-Met (see FIG. 4). […] [table] The in vitro studies were carried out as in Example 11. The conversion was determined as the quotient of the content of methionine or methionylmethionine (Met-Met) and the content of cyclo-Met-Met (see FIG. 3). […] [table] The in vitro studies were carried out as in Example 11. The conversion was determined as the quotient of the content of methionine or D-Met-L-Thr and the content of cyclo-D-Met-L-Thr (see FIG. 9). […] [table]

[3] = test system: chicken; settings: Baker et al. 1982; cited from earlier work
[4] = test system: digestive enzymes from mirror carp; experiment: In vitro digestion tests with digestive enzymes from mirror carp; format: in vitro ADME, Cyprinus carpio morpha noblis; settings: pH 9
Method: (§1) The diketopiperazines were digested in vitro with digestive enzymes from carnivorous rainbow trout and omnivorous mirror carp. For this, the enzymes were removed from the digestive tracts of fishes and shrimps. The enzyme solutions obtained were then added to the diketopiperazines. For better comparability of the digestibility of dipeptides of various species, identical conditions were selected for the in vitro digestion studies (37° C., pH 9).
a) Isolation of the Digestive Enzymes from Mirror Carp (Cyprinus carpio morpha noblis)
The digestive enzymes were isolated based on the method of EID and MATTY (Aquaculture 1989, 79, 111-119). For this, the intestine was removed from six one-year-old mirror carp (Cyprinus carpio morpha noblis), rinsed with water, cut open lengthwise and in each case the intestinal mucosa was scraped off. This was comminuted, together with crushed ice, in a mixer. The resultant suspension was treated with an ultrasonic rod, to disrupt any cells that were still intact. In order to separate the cell constituents and fat, the suspension was centrifuged for 30 minutes at 4° C., the homogenate was decanted off and sterilized with a trace of thimerosal. 49 ml of enzyme solution of the intestinal mucosa was obtained from 6 mirror carp. The solution was stored at 4° C. in the dark.
DD/LL-cyclo-Met-Met was taken up in TRIS/HCl buffer solution and the enzyme solution was added to it. As comparison and for assessing the purely chemical cleavage rate, in each case a blank was prepared without enzyme solution (see Table 1). A sample was taken from time to time and its composition was detected and quantified using a calibrated HPLC. The conversion was determined as the quotient of the content of methionine or methionylmethionine (Met-Met) and the content of DD/LL-cyclo-Met-Met (see FIG. 4).
The test from Example 11b) was carried out similarly, with the cyclic dipeptides cyclo-L-His-L-His and cyclo-D-Met-L-Leu (see FIGS. 5 and 6).

[5] = test system: digestive enzymes from rainbow trout; experiment: In vitro digestion tests with digestive enzymes from rainbow trout; format: in vitro ADME, Oncorhynchus mykiss; settings: pH 9
Method: as §1
a) Isolation of the Digestive Enzymes from Rainbow Trout (Oncorhynchus mykiss)
The digestive enzymes were isolated based on the method of EID and MATTY (Aquaculture 1989, 79, 111-119). For this, the intestine was removed from five one-year-old rainbow trout (Oncorhynchus mykiss) and processed as described in Example 11. 56 ml of enzyme solution of the intestinal mucosa was obtained from 5 rainbow trout. The solution was stored in the dark at 4° C.
The in vitro studies were carried out as in Example 11. The conversion was determined as the quotient of the content of methionine or methionylmethionine (Met-Met) and the content of cyclo-Met-Met (see FIG. 3).
The test from Example 12b) was carried out similarly, with the cyclic dipeptides cyclo-D-Met-L-Phe and cyclo-D-Met-L-Lys (see FIGS. 7 and 8).

[6] = Solubility (water, pH, bile/water mixtures); format: physicochemical
[7] = Leaching behavior from feed in water; format: physicochemical
[8] = Pelletizing and extrusion stability in feed production; format: physicochemical
[9] = test system: ruminants; settings: disclosed in WO00/28835; cited from earlier work

Compound: CSCCC(N)C(=O)O (racemic) [DL-methionine]
efficacy relative to L-methionine [1]: same efficacy as L-methionine

conversion in the blank to dipeptide D-Met-L-Thr or free amino acids ([2]; TRIS/HCl buffer pH 9.5, 37° C.): hardly any conversion
Compound: CSCC[C@H]1NC(=O)[C@H]([C@@H](C)O)NC1=O [cyclo-D-Met-L-Thr, 3-(R)-[2-(methylthio)ethyl]-6-(S)-(1-(R)-hydroxyethyl)-2,5-piperazinedione]

Compound: poly-L-methionine
biological value [3]: no biological value

enzymatic cleavage by digestive enzymes of mirror carp ([4]; in vitro, 37° C.): can be cleaved
reaction in the blank to dipeptide DD/LL-Met-Met or DL-methionine ([2]; TRIS/HCl buffer pH 9.5, bile, 37° C.): hardly any reaction
Compound: CSCCC1NC(=O)C(CCSC)NC1=O (centres unmarked) [DD/LL-cyclo-Met-Met, 3,6-bis[2-(methylthio)ethyl]-2,5-piperazinedione]

enzymatic cleavage by digestive enzymes of mirror carp [4]: can be cleaved
enzymatic cleavage by digestive enzymes of rainbow trout [5]: can be cleaved
Compound: CSCC[C@@H]1NC(=O)[C@H](CCSC)NC1=O [cyclo-L-Met-L-Met]

conversion in the blank to dipeptide DD/LL/meso-Met-Met or DL-methionine ([2]; TRIS/HCl buffer pH 9.5, 37° C.): hardly any conversion
enzymatic cleavage by digestive enzymes of rainbow trout ([5]; in vitro, 37° C.): can be cleaved
solubility [6]: low solubility
leaching behavior [7]: particularly good leaching behavior
pelletizing and extrusion stability [8]: good pelletizing and extrusion stability
Compound: CSCCC1NC(=O)C(CCSC)NC1=O (racemic) [DD/LL/meso-cyclo-Met-Met, 3,6-bis[2-(methylthio)ethyl]-2,5-piperazinedione]

Compound: CSCC[C@@H]1NC(=O)[C@@H](CCSC)NC1=O [cyclo-D-Met-L-Met]
enzymatic cleavage by digestive enzymes of mirror carp ([4]; in vitro, 37° C.): can be cleaved
enzymatic cleavage by digestive enzymes of rainbow trout ([5]; in vitro, 37° C.): can be cleaved

Compound: CSCCC(O)C(=O)OC(C)C (centres unmarked) [HMBi]
biological value [9]: at least 50%

Compound: CSCC[C@H]1NC(=O)[C@@H](CCSC)NC1=O [cyclo-D-Met-D-Met]
enzymatic cleavage by digestive enzymes of mirror carp ([4]; in vitro, 37° C.): can be cleaved
enzymatic cleavage by digestive enzymes of rainbow trout ([5]; in vitro, 37° C.): can be cleaved
